Results on three substances are retold here after patent publication US20110143948A1, “MOLECULAR SIGNATURES AND BIOMARKERS ASSOCIATED WITH MELANOMA AND METHODS OF USE THEREOF” (priority 2008, published 2011).

This data set concerns ncRNAs (SEQ ID NO 28-89). Briefly: ncRNA arrays of melanocytes, keratinocytes, normal skin, melanoma cell lines and patient samples. Further details: species or system human. The note with it: for ncRNA array expression, patient 2: melanoma patient 2 sample compared to normal skin; for ncRNA array expression, patient 3: melanoma patient 3 sample compared to normal skin; for ncRNA array expression, patient 4: melanoma patient 4 sample compared to normal skin; for ncRNA array expression, patient 5: melanoma patient 5 sample compared to normal skin; for ncRNA array expression, patient 6: melanoma patient 6 sample compared to normal skin; for ncRNA array expression, patient 7: melanoma patient 7 sample compared to normal skin; for ncRNA array expression, patient 8: melanoma patient 8 sample compared to normal skin; for ncRNA array expression, patient 9: melanoma patient 9 sample compared to normal skin; for ncRNA array expression, patient 10: melanoma patient 10 sample compared to normal skin; for ncRNA array expression, patient 19: melanoma patient 19 sample compared to normal skin; for ncRNA array expression, patient 20: melanoma patient 20 sample compared to normal skin; for ncRNA array expression, patient 21: melanoma patient 21 sample compared to normal skin; for ncRNA array expression, patient 22: melanoma patient 22 sample compared to normal skin; for ncRNA array expression, patient 23: melanoma patient 23 sample compared to normal skin; for ncRNA array expression, patient 24: melanoma patient 24 sample compared to normal skin; for ncRNA array expression, patient 25: melanoma patient 25 sample compared to normal skin; for ncRNA array expression, patient 26: melanoma patient 26 sample compared to normal skin; for ncRNA array expression, patient 27: melanoma patient 27 sample compared to normal skin; for ncRNA array expression, patient 28: melanoma patient 28 sample compared to normal skin; for ncRNA array expression, patient 29: melanoma patient 29 sample compared to normal skin; for ncRNA array expression, patient 30: melanoma patient 30 sample compared to normal skin. A digest of the protocol: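 Total RNA from melanocytes, keratinocytes, normal human skin, melanoma cell lines and melanoma patient samples was profiled on an array of >10,000 putative (>200 nt) human and mouse ncRNAs plus RefSeq mRNA probes. Expression was compared with melanocytes or normal skin, keratinocyte signatures were subtracted, and hits were validated by qRT-PCR and Northern blot.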

For “SEQ ID NO 57 (TTGTTGTTTTGGGAGATACCCTGTTTAGCCTGAAAGGATTGAGATACTGTAATTGCTATG; listed as DNA, chemistry not given here; listed as Homo sapiens)”, the “ncRNA array expression, patient 2” value is listed as 1.808; the “ncRNA array expression, patient 3” value came to 2.081; the “ncRNA array expression, patient 4” value turned out to be 1.613; the “ncRNA array expression, patient 5” value was found to be 2.211. In addition, the “ncRNA array expression, patient 6” value is reported as 1.68; the “ncRNA array expression, patient 7” value is reported as 0.6099; the “ncRNA array expression, patient 8” value was determined as 1.985; the “ncRNA array expression, patient 9” value is recorded as 0.645. The “ncRNA array expression, patient 10” value amounted to 0.5023; the “ncRNA array expression, patient 19” value is listed as 0.2628; the “ncRNA array expression, patient 20” value turned out to be 0.1922; the “ncRNA array expression, patient 21” value was 0.9386. The “ncRNA array expression, patient 22” value is 1.473; the “ncRNA array expression, patient 23” value is given as 1.122; the “ncRNA array expression, patient 24” value was 0.5436; the “ncRNA array expression, patient 25” value worked out at 1.559. Moreover, the “ncRNA array expression, patient 26” value was 1.989; the “ncRNA array expression, patient 27” value stood at 1.446; the “ncRNA array expression, patient 28” value came out at 1.064; the “ncRNA array expression, patient 29” value was found to be 0.4459. In addition, the “ncRNA array expression, patient 30” value is on record as −0.5305.
With “SEQ ID NO 87 (GGGATATTTTTAAGGGGAAGGGGAAGGATAGAGAGAAAGTGCAGGCAGGGCTGGGGTCTG; listed as DNA, chemistry not given here; listed as Homo sapiens)”, the “ncRNA array expression, patient 2” value is −2.131; the “ncRNA array expression, patient 3” value is recorded as −1.6373; the “ncRNA array expression, patient 4” value is recorded as −2.999; the “ncRNA array expression, patient 5” value is listed as −2.972. Moreover, the “ncRNA array expression, patient 6” value is reported as −2.3216; the “ncRNA array expression, patient 7” value is −2.468; the “ncRNA array expression, patient 8” value is on record as −2.76; the “ncRNA array expression, patient 9” value is reported as −1.536. In addition, the “ncRNA array expression, patient 10” value is −1.881; the “ncRNA array expression, patient 19” value is −0.8262; the “ncRNA array expression, patient 20” value was −1.935; the “ncRNA array expression, patient 21” value is −2.079. Also, the “ncRNA array expression, patient 22” value is on record as −1.312; the “ncRNA array expression, patient 23” value was −2; the “ncRNA array expression, patient 24” value is −3.011; the “ncRNA array expression, patient 25” value is listed as −2.33. In addition, the “ncRNA array expression, patient 26” value was −2.364; the “ncRNA array expression, patient 27” value is −2.214; the “ncRNA array expression, patient 28” value is given as −2.17; the “ncRNA array expression, patient 29” value was −2.373. Besides, the “ncRNA array expression, patient 30” value is 0.7984.
For the substance “SEQ ID NO 84 (TTATTAAAAGGACTGAGGATCATGTGTGTTGGTGTGTCCCGGAGTCTGCTCTAAGGTAAA; listed as DNA, chemistry not given here; listed as Homo sapiens)”, the “ncRNA array expression, patient 2” value is reported as 1.997; the “ncRNA array expression, patient 3” value is reported as 1.789; the “ncRNA array expression, patient 4” value came to 1.046; the “ncRNA array expression, patient 5” value was determined as 0.9959. Also, the “ncRNA array expression, patient 6” value is 0.3741; the “ncRNA array expression, patient 7” value amounted to 2.005; the “ncRNA array expression, patient 8” value was determined as 1.104; the “ncRNA array expression, patient 9” value was found to be 1.55. In addition, the “ncRNA array expression, patient 10” value was 0.2561; the “ncRNA array expression, patient 19” value came to 1.044; the “ncRNA array expression, patient 20” value is on record as 1.668; the “ncRNA array expression, patient 21” value is reported as 1.56. Moreover, the “ncRNA array expression, patient 22” value came out at 2.01; the “ncRNA array expression, patient 23” value is given as 2.078; the “ncRNA array expression, patient 24” value is recorded as 1.532; the “ncRNA array expression, patient 25” value is on record as 1.329. In addition, the “ncRNA array expression, patient 26” value was 1.373; the “ncRNA array expression, patient 27” value is 1.88; the “ncRNA array expression, patient 28” value worked out at 1.062; the “ncRNA array expression, patient 29” value turned out to be 1.558. For the same substance, the “ncRNA array expression, patient 30” value worked out at 1.105.
